{"source": "paper PMC4326127", "about": "“Collagen Inhibitory Peptide R1R2 Mediates Vascular Remodeling by Decreasing Inflammation and Smooth Muscle Cell Activation” (PLoS ONE, 2015)", "key": {"[1]": {"system": "binding of FN to collagen type I", "test": "Solid-phase binding assay (competitive ELISA) of FN to collagen", "set-up": "species or system human FN; rat collagen type I", "conditions": "4 nM FN incubated with peptide at 4°C overnight, then on wells coated with 10 μg/ml collagen I overnight at 37°C; anti-FN/HRP, ABTS, A405", "protocol": "Human FN and rat collagen type I for competitive ELISA were purchased from Sigma-Aldrich (St. Louis, MO).\nThe FN-peptide solutions were added to collagen or BSA-coated wells, and the plates were incubated overnight at 37°C. The wells were washed and a rabbit anti-FN antibody was added for 90 minutes at room temperature. Wells were washed and then incubated with a horseradish peroxidase-conjugated secondary antibody. After washing was completed, peroxidase activity was quantified using 2,2'-azino-bis-(3-ethylbenthiazoline-6-sulfonic acid). Measurements were done at 405 nm (A405) using a SpectraMax M5 microplate reader (Molecular Device, Sunnyvale, CA).\nBound FN was detected with an anti-FN antibody followed by HRP-conjugated secondary antibody, and ABTS as described in Methods. The absorbance at 405nm was quantitated."}, "[2]": {"system": "left common carotid artery (flow-induced vascular remodeling)", "test": "Morphometric analysis of carotid artery after complete common carotid ligation", "format": "in vivo, FVB/NJ (FVB) mice", "conditions": "periadventitial", "source_text": "(§1) Animals were anesthetized with isoflurane inhalation. The left common carotid artery was exposed, dissected free from the surrounding connective tissue and completely ligated with 6-0 silk suture just proximal to the carotid bifurcation. […] 4–10 mice were included in each experimental group.\n5 groups of animals were processed for morphometric analysis. Mice were fixed with 10% formalin 7 or 14 days after the surgery. The common carotid arteries were harvested and embedded in paraffin.\n(§2) For in vivo experiments, the data are shown as the mean ± SEM. For in vitro experiments, the data shown are the means ± SD of a representative experiment, at least 3 independent experiments were performed. One-way ANOVA with post-hoc testing were used for data analysis with GraphPad Prism software (GraphPad, San Diego, CA). If normality test failed, nonparametric Kruskal-Wallis test followed by Dunn's post-hoc test were used. P > 0.05 was not considered significant."}, "collagen type I": {"system": "collagen type I", "test": "IHC for collagen type I in ligated carotid artery", "format": "in vivo, FVB/NJ (FVB) mice", "conditions": "7 days after surgery; 20 μM peptide in pluronic gel; mean ± SEM; R1R2 n = 6, scrambled n = 6", "description": "as §1\n(§3) Paraffin sections selected from the first mm of the carotid artery in each group were used for immunohistochemistry (IHC). […] Sections were then incubated with appropriate biotinylated secondary antibodies followed by avidin-biotin immunoperoxidase system (Vector Laboratories, Burlingame, CA). Liquid DAB Substrate Chromogen system (Dako, Carpinteria, CA) was used for detection.\n(§4) Quantitative IHC analysis was performed on digital images captured with a 20x objective by using Image-Pro Plus software. Data from 3–6 mice for each group were averaged, and the average values ± SEM were shown. For FN, collagen type I, SM-MHC and SM α-actin, color digital images were transformed into gray scale, and the sum of the optical densities from the intima+media area in each section was determined. […] The percent of positive cells is reported as the proliferation index. […] The intima+media region was traced manually. The percent of positively stained area in intima+media to the total traced area was assessed.\n(§5) For in vivo experiments, the data are shown as the mean ± SEM. […]"}, "collagen": {"system": "collagen", "test": "Hydroxyproline assay of carotid collagen content", "format": "in vivo, FVB/NJ (FVB) mice", "conditions": "14 days post-ligation; three carotid arteries pooled per group; colorimetric chloramine T; mean ± SEM, n = 3", "description": "as §1\nAfter reconstituting with water, samples were measured using a colorimetric chloramine T assay. Three independent experiments were performed for statistical analysis.\nas §2"}, "FN": {"system": "FN", "test": "IHC for FN in ligated carotid artery", "format": "in vivo, FVB/NJ (FVB) mice", "conditions": "mean ± SEM", "description": "as §1, §3, §4, §2"}, "[3]": {"system": "smooth muscle α-actin (SMAA)", "test": "IHC for smooth muscle α-actin in ligated carotid artery", "format": "in vivo, FVB/NJ (FVB) mice", "conditions": "7 days post-ligation; mean ± SEM; scrambled n = 6, R1R2 n = 5 (sham 0.232 ± 0.011, n = 5)", "description": "as §1, §3, §4, §5"}, "CD45 (+) leukocytes": {"system": "CD45 (+) leukocytes", "test": "CD45 IHC, leukocyte infiltration in carotid intima-media", "format": "in vivo, FVB/NJ (FVB) mice", "conditions": "7 days after ligation; percent of positively stained area; mean ± SEM; R1R2 n = 5, scrambled n = 6", "description": "as §1, §3, §4, §2"}, "VCAM-1": {"system": "VCAM-1", "test": "VCAM-1 IHC in ligated carotid artery", "format": "in vivo, FVB/NJ (FVB) mice", "conditions": "7 days after ligation; percent of positively stained area; mean ± SEM; R1R2 n = 7, control peptide n = 9", "description": "as §1, §3, §4, §5"}, "ICAM-1": {"system": "ICAM-1", "test": "ICAM-1 IHC in ligated carotid artery", "format": "in vivo, FVB/NJ (FVB) mice", "conditions": "7 days after ligation; percent of positively stained area; mean ± SEM; R1R2 n = 7, control peptide n = 8", "description": "as §1, §3, §4, §5"}, "A7r5 SMCs [4]": {"system": "A7r5 SMCs", "test": "A7r5 SMC growth study", "format": "cell-based", "conditions": "48hr; 10% FBS after serum starvation and 36 hours peptide treatment; hemocytometer, trypan blue; mean ± SD, n = 5", "description": "(§6) Human umbilical vein endothelial cells (HUVECs) and A7r5 SMCs were provided by Resource Center (SB3, NSC 100-2325-B-080-001), National Research Program for Biopharmaceuticals (Hsinchu, Taiwan). HUVECs were maintained in M199 (Life Technologies, Carlsbad, CA) with 25U/ml heparin (Sigma-Aldrich, St. Louis, MO), 10% fetal bovine serum (FBS) and endothelial cell growth supplement (ECGS; Millipore, Billerica, MA). A7r5 SMCs were grown in Dulbecco’s Modified Eagle’s Medium (DMEM) containing high glucose, supplemented with 10% fetal bovine serum. Human U937 cells were grown in RPMI1640 with 10% FBS.\nA7r5 cells and HUVECs were growth-arrested and then stimulated with 10% FBS or 10 ng/ml TNF-αovernight after serum starvation as indicated in the figure legend. Briefly, trypan blue-excluding cells were counted with a hemocytometer, and data were analyzed using GraphPad Prism Software (San Diego, CA) as in previous studies. A second observer performed a similar analysis to verify the initial findings.\nas §2\nFig 6 R1R2 reduces SMC proliferation and migration. (A) A7r5 SMC growth study over 96 hours. After serum starvation and treatment with R1R2 or scrambled peptides for 36 hours, cells were stimulated with 10% FBS over 96 hours. Cells were counted at the indicated time in the figure (n = 5). (B) A7r5 SMCs were pretreated with R1R2 or scramble peptide for 36 hours. […] (C) Quantitation of SMC migration in the scratch wound healing assay was performed by subtracting the cell-free area 30 hours after PDGF-BB stimulation from the cell-free area in the beginning (n = 5). * indicates p<0.05 and ** p< 0.01."}, "A7r5 SMCs [5]": {"system": "A7r5 SMCs", "test": "SMC migration, scrape wound assay", "format": "cell-based", "conditions": "A7r5 SMCs, 36 hours peptide pretreatment, 10 ng/ml PDGF-BB, 30 hours; mean ± SD, n = 3", "description": "as §6\nA scrape wound assay was used to assess the effect of R1R2 and scrambled peptides on SMC migration as described. Briefly, A7r5 SMCs were grown until 90% confluent, followed by serum starvation and treatment with R1R2 and scrambled peptides for 36 hours. Several scrape wounds were then performed across the dish with a sterile yellow pipet tip. We initiated the experiment with treatment of cells with 10 ng/ml PDGF-BB. Photographs of the wound area were taken immediately after PDGF-BB addition (0 hour) and 30 hours postwounding with an Olympus CKX-41 microscope connected to a camera. At least three photographs were taken per group at each time point. Wound areas were determined using Image-Pro Software (Media Cybernetics, MD). Measurement of migration was determined by subtracting the cell-free area 30 hours after PDGF-BB addition from the cell-free area in the beginning of scrape wounds.\nFor in vivo experiments, the data are shown as the mean ± SEM. For in vitro experiments, the data shown are the means ± SD of a representative experiment, at least 3 independent experiments were performed. […]\nFig 6 R1R2 reduces SMC proliferation and migration. […] Cells were counted at the indicated time in the figure (n = 5). […] (C) Quantitation of SMC migration in the scratch wound healing assay was performed by subtracting the cell-free area 30 hours after PDGF-BB stimulation from the cell-free area in the beginning (n = 5). * indicates p<0.05 and ** p< 0.01."}, "U937 cells / HUVECs [6]": {"system": "U937 cells / HUVECs", "test": "Monocyte U937 adhesion to HUVECs", "format": "cell-based, human", "conditions": "HUVECs treated with 10 ng/ml TNF-α; calcein-AM U937 5x10^5 cells/well, 30 minutes at 37°C; fluorescence 485/535; mean ± SD", "description": "as §2"}, "U937 cells / HUVECs [7]": {"system": "U937 cells / HUVECs", "test": "Monocyte U937 transendothelial migration assay", "format": "cell-based, human", "conditions": "HUVECs on 5um transwells, 10 ng/ml TNF-α; U937 1.5x10^5 cells/transwell, 1.5 hours at 37°C; fluorescence 485/535; mean ± SD", "description": "as §2"}, "[8]": {"conditions": "7 day after ligation, 20 μM peptide in 50 μl F-127 pluronic gel, mean ± SEM, scrambled n = 4, R1R2 n = 10"}, "[9]": {"conditions": "14 day after ligation, 20 μM peptide in 50 μl F-127 pluronic gel, mean ± SEM, scrambled n = 4, R1R2 n = 9"}}, "data": [{"sequence": "PGPGAEQPEQSKERNSQERGNGLALPGEELEGQEGGNKPSGENNGPPQGNLRGPLEG [scrambled peptide, reference compound]", "values": [{"measurement": "effect on FN-collagen type I binding", "setting": "[1]", "value": "had no effect on FN-collagen binding"}, {"measurement": "effect on neointimal formation", "setting": "[2]; 7 and 14 days post-ligation, 20 μM peptide in pluronic gel, in words", "value": "have no effect on neointimal formation"}, {"measurement": "EEL Area", "setting": "[2]; [8]", "value": "91403 ± 3805 (n = 4) μm^2"}, {"measurement": "Lumen", "setting": "[2]; [8]", "value": "44901 ± 4552 (n = 4) μm^2"}, {"measurement": "EEL Area", "setting": "[2]; [9]", "value": "92240 ± 13572 (n = 4) μm^2"}, {"measurement": "Intima+Media", "setting": "[2]; [9]", "value": "65441 ± 11973 (n = 4) μm^2"}, {"measurement": "Lumen", "setting": "[2]; [9]", "value": "37551 ± 11976 (n = 4) μm^2"}, {"measurement": "collagen type I IHC intensity in intima-media area", "setting": "collagen type I", "value": "0.198 ± 0.007"}, {"measurement": "collagen content, hydroxyproline assay", "setting": "collagen", "value": "2.133 ± 0.284"}, {"measurement": "FN IHC intensity in intima-media area", "setting": "FN; 7 days after ligation, R1R2 n = 6, scrambled n = 6", "value": "0.144 ± 0.005"}, {"measurement": "FN IHC intensity in intima-media area", "setting": "FN; 14 days after ligation, R1R2 n = 7, scrambled n = 7", "value": "0.338 ± 0.016"}, {"measurement": "SMAA IHC staining in intima-media area", "setting": "[3]", "value": "0.176 ± 0.004"}, {"measurement": "CD45 (+) area in intima-media", "setting": "CD45 (+) leukocytes", "value": "0.441 ± 0.049", "unit": "%"}, {"measurement": "VCAM-1 (+) area in intima-media", "setting": "VCAM-1", "value": "25.72 ± 1.966", "unit": "%"}, {"measurement": "ICAM-1 (+) area in intima-media", "setting": "ICAM-1", "value": "30.39 ± 3.016", "unit": "%"}, {"measurement": "A7r5 SMC growth, cell number", "setting": "A7r5 SMCs [4]", "value": "2.740 ± 0.688 x 10^5"}, {"measurement": "SMC migration (cell-free area at 0 h minus cell-free area at 30 hours)", "setting": "A7r5 SMCs [5]", "value": "313537 ± 66925"}, {"measurement": "U937 adhesion to HUVECs", "setting": "U937 cells / HUVECs [6]", "value": "259093 ± 14720", "unit": "cells per cm^2"}, {"measurement": "U937 transendothelial migration", "setting": "U937 cells / HUVECs [7]", "value": "110055 ± 42517", "unit": "cells per well"}]}]}
